Patent US4927958A, “Styryl ketones” (Hoffmann-La Roche Inc., priority 1987, dated 1990)

Tests used:
[1] = Acute toxicity (single oral administration to mice); conditions: mouse, in vivo, read-out: Toxicity LD 50
Description: Representative compounds of formulae I and II have been investigated with respect to their mucosa-protective and gastric acid secretion-inhibiting properties as well as to their toxicity.
(§1) In the following Table there are given for a series of representative compounds of formula I and for two compounds of formula II the results of the testing with respect to their mucosa-protective activity ("ethanol test") and to their gastric acid secretion-inhibiting activity. Moreover, this Table contains data concerning the acute toxicity (LD50 in the case of single oral administration to mice).

[2] = system: ethanol-induced lesions of the mucous membrane of the stomach; assay: Ethanol test (mucosa-protective activity); type: in vivo, male rats; conditions: rats; oral, 30 minutes prior to absolute ethanol (1 ml per rat); dosage reducing by 50% the number of lesions vs control; read-out: Ethanol Test ID 50
Procedure: The experimental procedure described hereinafter has been used to determine the mucosa-protective property:
The oral administration of absolute ethanol to male rats in a dosage of 1 ml per rat leads within 1 hour to bloody lesions of the mucous membrane of the stomach. Various dosages of the substances to be tested (suspended in 0.125% carboxymethylcellulose) or of the vehicle alone (control) are administered to the rats orally (1 ml per rat) 30 minutes prior to the treatment with ethanol. One hour after the administration of the ethanol the animals are sacrificed, their stomachs are examined for the presence of lesions, and the number and size of such lesions are mentioned. The ID50 is that dosage of a test substance which reduces by 50% the number of lesions in comparison to the control group.
as §1

gastric acid secretion = assay: Gastric acid secretion-inhibiting activity (pylorus ligation, Shay et al.); type: in vivo, male rats; conditions: Rattus norvegicus, 5 h; pylorus-ligated rats; intraduodenal; five hours after ligation; dosage giving 50% decrease of the secretion vs control; read-out: Gastric acid secretion-inhibition ID 50
Procedure: The test procedure described hereinafter was used to determine the gastric acid secretion-inhibiting activity:
The pylorus of male rats is ligated under slight ether narcosis in accordance with the procedure described by Shay et al. in Gastroenterology 5, 43 (1945). The substances to be tested, suspended in 0.5% carboxymethylcellulose, are administered intraduodenally. Control animals are treated only with the vehicle. Five hours after the ligation the animals are sacrificed, the volume and acidity of their gastric fluid are determined, and the values obtained are compared with those of control animals. The ID50 is that dosage of a test substance which brings about a 50% decrease of the secretion in comparison to the control animals.
as §1

Row | Compound | LD50 [1] [mg/kg] | ED50 [2] [mg/kg] | ED50 (gastric acid secretion) [mg/kg]
1 | O=C(O)/C=C/C(=O)/C=C/c1ccc(F)cc1 [E, (E,E)6-(4-Fluorophenyl)-4-oxo-2,5-hexadienoic acid] | 312 to 625 | 1.9 | 
2 | COCCOCCOC(=O)C#CC(O)/C=C/c1ccc(OC)cc1 (stereo not drawn) [J, 2(2-Methoxyethoxy)ethyl (E)4-hydroxy-6-(4-methoxy-phenyl)-5-hexen-2-ynoate] | > 4000 | 3.4 | 
3 | COc1ccc(/C=C/C(=O)C#CC(=O)O)cc1 [D, (E)6-(4-Methoxyphenyl)-4-oxo-5-hexen-2-ynoic acid] | 500 to 1000 | 0.5 | 
4 | COc1ccc(/C=C/C(=O)/C=C\C(=O)O)cc1 [F, (2Z,5E)6-(4-Methoxyphenyl)-4-oxo-2,5-hexadienoic acid] | 156 to 312 | 0.7 | 
5 | COc1cccc(/C=C/C(=O)/C=C/C(=O)O)c1 [A, (E,E)6-(3-Methoxyphenyl)-4-oxo-2,5-hexadienoic acid] | 312 to 625 | 0.8 | 9
6 | COC(=O)/C=C\C(=O)/C=C/c1ccc(OC)cc1 [C, Methyl (2Z,5E)6-(4-methoxyphenyl)-4-oxo-2,5-hexadienoate] | 625 to 1250 | 1 | 
7 | COc1ccc(/C=C/C(=O)/C=C/C(=O)O)cc1 [B, (E,E)6-(4-Methoxyphenyl)-4-oxo-2,5-hexadienoic acid] | 312 to 625 | 0.7 | 
8 | COCCOCCOC(=O)C#CC(=O)/C=C/c1ccc(OC)cc1 [H, 2(2-Methoxyethoxy)ethyl (E)6-(4-methoxyphenyl)-4-oxo-5-hexen-2-ynoate] | 2500 to 5000 | 2.7 | 
9 | COC(=O)C#CC(O)/C=C/c1ccc(OC)cc1 (stereo not drawn) [I, Methyl (E)4-hydroxy-6-(4-methoxyphenyl)-5-hexen-2-ynoate] | 1000 to 2000 | 2.1 | 
10 | COCCOCCOC(=O)/C=C/C(=O)/C=C/c1cccc(OC)c1 [G, 2(2-Methoxyethoxy)ethyl (E,E)6-(3-methoxyphenyl)-4-oxo-2,5-hexadienoate] | 500 to 1000 | 2.7 | 
